Experimental data as given in patent US20080175974A1, “Isomaltulose as an Aftertaste-Shortening Agent” (Suedzucker Aktiengesellschaft Mannheim/Ochsenfurt, priority 2005, published 2008).

Legend:
test subjects [1] = test: Sensory evaluation of milk chocolate containing sucralose (aftertaste); type: in vivo, humans; conditions: milk chocolate with 42.41 g/100 g isomaltulose and 0.02 g/100 g sucralose; 12 to 17 test subjects; assessed after chocolate completely dissolved in the mouth; compared with trehalose, lactite, maltite, erythrite chocolates; FIG. 1
Procedure: Milk chocolates containing sucralose were produced, which contained either a sugar substitute or isomaltulose (Palatinose™) as the sweetener that is absorbed by the body. These milk chocolates were evaluated sensorially with respect to their aftertaste that is typical of sucralose.
“You have before you samples of chocolate containing sucralose. Sucralose has a pronounced, lingering aftertaste. The following samples are to be evaluated with regard to whether, and if so to what extent, this aftertaste is perceptible.
Please take a serving of chocolate (1 “square”) and suck on it. […] Then please assess the aftertaste of the sample.
To neutralize the taste, please have some of the prepared tea and the white bread.”
Samples: • Milk chocolate containing sucralose with isomaltulose • Milk chocolate containing sucralose with trehalose • Milk chocolate containing sucralose with lactite • Milk chocolate containing sucralose with maltite • Milk chocolate containing sucralose with erythrite
The sensory evaluation of the chocolates containing sucralose was performed by 12 to 17 test subjects.
The aftertaste of the sucralose was assessed after the chocolate had been completely dissolved in the mouth.

[2] = water; cited from earlier work
test subjects [3] = test: Sensory evaluation of aqueous solutions containing sucralose (aftertaste); type: in vivo, humans; conditions: aqueous solution 7.916% isomaltulose, 0.004% sucralose; 5 test subjects; assessed immediately following consumption; compared with maltodextrin or saccharose solutions; scale 0=no perceptible aftertaste, 2=clearly perceptible
Procedure: Aqueous solutions containing sucralose were prepared, which contained isomaltulose, maltodextrin or saccharose as a sweetener. All the solutions also contained sucralose. […] Samples: • Maltodextrin solution: 7.916% maltodextrin; 0.004% sucralose; 92.080% water • Palatinose™ solution: 7.916% isomaltulose; 0.004% sucralose; 92.080% water • Saccharose solution: 5.603% saccharose; 0.004% sucralose; 94.393% water The sensory evaluation of the solutions containing sucralose was performed by 5 test subjects. The aftertaste of the sucralose was assessed immediately following consumption of the solution containing sucralose.

[4] = cited from earlier work

Structure (SMILES) | lingering aftertaste of sucralose (test subjects [1]) | aqueous solubility [2] | lingering aftertaste of sucralose (test subjects [3]) | sweetening power ([4]; 10% aqueous isomaltulose solutions) | sweetness relative to sugar ([4]; sucralose in aqueous solution)
O=C(CO)[C@@H](O)[C@H](O)[C@H](O)CO[C@H]1O[C@H](CO)[C@@H](O)[C@H](O)[C@H]1O [isomaltulose, 6-O-α-D-glucopyranosyl-fructose] | decreases the lingering aftertaste | 0.49 g anhydrous isomaltulose per gram of water | decreases the lingering aftertaste | approximately 0.4 of the sweetening power of sugar | 
OC[C@H]1O[C@H](O[C@]2(CCl)O[C@H](CCl)[C@@H](O)[C@@H]2O)[C@H](O)[C@@H](O)[C@H]1Cl [sucralose, 1,6-dichloro-1,6-didesoxy-β-D-fructofuranosyl-4-chloro-4-desoxy-α-D-galactopyranoside] |  |  |  |  | approximately 600 times sweeter than sugar
